Measured values as given in the supplement of paper PMC10307832.

Legend:
Test in all cases: relative viability (nuclei count vs DMSO), 5 days (fraction); higher = more cells survive
[1] = system: 201T
Outline: (§1)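 Lung cancer cell lines were pin-tool dosed in 1536-well plates on the day after seeding, with either a lone drug or a fixed anchor-drug dose plus five library-drug doses (not always all listed) in √10 steps. Nuclei were counted on 4× images after 5 days. Relative viability is the ratio of treated-well to vehicle-well nuclei counts, with each value a median of duplicate plates.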

[2] = system: ABC-1
Outline: as §1

[3] = system: BEN
Outline: as §1

[4] = system: HCC-366
Outline: as §1

[5] = system: HCC-44
Outline: as §1

[6] = system: HCC-78
Outline: as §1

[7] = system: LK-2
Outline: as §1

[8] = system: LOU-NH91
Outline: as §1

[9] = system: NCI-H1355
Outline: as §1

[10] = system: NCI-H1666
Outline: as §1

[11] = system: NCI-H1734
Outline: as §1

O=C(O)CCCCC(CCSCc1ccccc1)SCc1ccccc1 (centres undefined) [CPI-613] + C[C@]1(O)C[C@@H](c2nc(-c3ccc4ccc(-c5ccccc5)nc4c3)c3c(N)nccn32)C1 [Linsitinib] (partner 1 µM)
relative viability ([1]; first compound 5 µM): 0.98 | relative viability ([1]; first compound 15.81 µM): 0.969 | relative viability ([1]; first compound 50 µM): 1.01 | relative viability ([1]; first compound 158.11 µM): 0.864 | relative viability ([1]; first compound 500 µM): 0.8 | relative viability ([2]; first compound 5 µM): 0.744 | relative viability ([2]; first compound 15.81 µM): 1.02 | relative viability ([2]; first compound 50 µM): 0.815 | relative viability ([2]; first compound 158.11 µM): 0.254 | relative viability ([2]; first compound 500 µM): 0.169 | relative viability ([3]; first compound 5 µM): 0.881 | relative viability ([3]; first compound 15.81 µM): 0.784 | relative viability ([3]; first compound 50 µM): 0.941 | relative viability ([3]; first compound 158.11 µM): 0.747 | relative viability ([3]; first compound 500 µM): 0.72 | relative viability ([4]; first compound 5 µM): 0.601 | relative viability ([4]; first compound 15.81 µM): 0.637 | relative viability ([4]; first compound 50 µM): 0.597 | relative viability ([4]; first compound 158.11 µM): 0.587 | relative viability ([4]; first compound 500 µM): 0.0054 | relative viability ([5]; first compound 5 µM): 0.625 | relative viability ([5]; first compound 15.81 µM): 0.666 | relative viability ([5]; first compound 50 µM): 0.717 | relative viability ([5]; first compound 158.11 µM): 0.393 | relative viability ([5]; first compound 500 µM): 0.0377 | relative viability ([6]; first compound 5 µM): 0.48 | relative viability ([6]; first compound 15.81 µM): 0.538 | relative viability ([6]; first compound 158.11 µM): 0.573 | relative viability ([6]; first compound 500 µM): 0.487 | relative viability ([7]; first compound 5 µM): 0.526 | relative viability ([7]; first compound 15.81 µM): 0.637 | relative viability ([7]; first compound 50 µM): 0.655 | relative viability ([7]; first compound 158.11 µM): 0.853 | relative viability ([7]; first compound 500 µM): 0.54 | relative viability ([8]; first compound 5 µM): 0.918 | relative viability ([8]; first compound 15.81 µM): 0.907 | relative viability ([8]; first compound 50 µM): 1.06 | relative viability ([8]; first compound 158.11 µM): 0.971 | relative viability ([8]; first compound 500 µM): 0.959 | relative viability ([9]; first compound 5 µM): 0.78 | relative viability ([9]; first compound 15.81 µM): 0.825 | relative viability ([9]; first compound 50 µM): 0.856 | relative viability ([9]; first compound 158.11 µM): 0.477 | relative viability ([9]; first compound 500 µM): 0.103 | relative viability ([10]; first compound 5 µM): 0.783 | relative viability ([10]; first compound 15.81 µM): 0.907 | relative viability ([10]; first compound 50 µM): 0.789 | relative viability ([10]; first compound 158.11 µM): 0.172 | relative viability ([10]; first compound 500 µM): 0.167 | relative viability ([11]; first compound 5 µM): 0.93 | relative viability ([11]; first compound 15.81 µM): 0.821 | relative viability ([11]; first compound 50 µM): 0.83 | relative viability ([11]; first compound 158.11 µM): 0.69 | relative viability ([11]; first compound 500 µM): 0.117
